From ChEMBL document CHEMBL1201862, “PubChem BioAssay data set” (2004) come the findings set out here.

The structures appear in SMILES notation.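 Values below derive from 48-hour exposures of cells grown in 96-well plates, with endpoints linearly interpolated between the two concentrations bracketing the appropriate inhibition level. GI50 is the concentration that inhibits growth by half.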 Active and inactive are the calls of the source. No stated cut-off is given here; in the data, active = GI50 up to about 1.1 µM and inactive = higher.

Test systems include HOP-92; CAKI-1; SF-295; SR; T47D; PC-3; OVCAR-5; RPMI-8226; HT-29; IGROV-1; NCI-H460; HCC 2998; SF-268; SW-620; SNB-19; U-251; HL-60; HCT-15; MDA-MB-231; MCF7.
Common to all, as to assay: growth of human tumour cells (NCI), 48 h

For the compound `CC(C)c1nc(Cl)nc(Cl)c1Cl`, the GI50 in the experiment on HOP-92 was 0.0233 µM (active); in the experiment with CAKI-1 it was < 0.01 µM (active); in the experiment with SF-295, 2.82 µM (inactive); in the experiment on SR, < 0.01 µM (active); with T47D, 0.6 µM (active); in the experiment on PC-3 it was 0.401 µM (active). Moreover, the GI50 was 0.414 µM (active) with OVCAR-5; 0.142 µM (active) in the experiment on RPMI-8226; 0.0479 µM (active) in the experiment on HT-29; 0.172 µM (active) in the experiment on IGROV-1; 1.29 µM (inactive) in the experiment on NCI-H460; 0.948 µM (active) with HCC 2998. Moreover, the GI50 was 1.16 µM (inactive) with SF-268; < 0.0233 µM (active) in the experiment with SW-620; 0.847 µM (active) in the experiment with SNB-19; 0.61 µM (active) in the experiment with U-251; 0.0125 µM (active) with HL-60; 0.279 µM in the experiment with HCT-15. In the experiment on MDA-MB-231, the GI50 was 1.24 µM (inactive).

As for `CC(=O)Nc1ccc(/N=N\c2c(O)c(S(=O)(=O)O)cc3cc(S(=O)(=O)O)ccc23)cc1`, the GI50 in the experiment with HOP-92, in the experiment on CAKI-1, in the experiment on SF-295, in the experiment on T47D, in the experiment on PC-3 and with OVCAR-5 was > 100 µM (inactive) in each case. Further, the GI50 in the experiment on RPMI-8226, in the experiment with HT-29, in the experiment with IGROV-1, in the experiment with SF-268, in the experiment with SW-620 and with SNB-19 was > 100 µM (inactive) throughout. Moreover, the GI50 in the experiment on U-251 is > 100 µM (inactive); in the experiment with HCT-15, greater than 100 µM; with MDA-MB-231, > 100 µM (inactive).

In the case of `Cc1ccc(S(=O)(=O)N2CC(CCN)c3ccccc32)cc1` (stereo not drawn), the GI50 in the experiment on HOP-92 is 4.19 µM (inactive); in the experiment with CAKI-1, 6.38 µM (inactive); in the experiment with SF-295, 4.56 µM (inactive); with SR, 5.19 µM (inactive); in the experiment with PC-3, 3.64 µM (inactive); in the experiment with OVCAR-5, 4.43 µM (inactive). For the same compound, the GI50 in the experiment with RPMI-8226 is 6.01 µM (inactive); with HT-29, 2.89 µM (inactive); with IGROV-1, 3.28 µM (inactive); with NCI-H460 it was 5.08 µM (inactive); in the experiment with HCC 2998, 4.76 µM (inactive); in the experiment on SF-268, 5.31 µM (inactive). Moreover, the GI50 was 4.34 µM (inactive) in the experiment with SW-620; 4.97 µM (inactive) in the experiment on SNB-19; 3.72 µM (inactive) in the experiment with U-251; > 100 µM (inactive) in the experiment with HL-60; 1.47 µM (inactive) in the experiment on MCF7; 4.05 µM with HCT-15. Moreover, in the experiment with MDA-MB-231, the GI50 was 4.1 µM (inactive).

Turning to `COc1cc(C2c3cc4c(cc3OC(NNS(=O)(=O)c3ccc(C)cc3)C2C)OCO4)cc(OC)c1O` (stereo not drawn), the GI50 was 14.5 µM (inactive) in the experiment with HOP-92; 12.8 µM (inactive) in the experiment with CAKI-1; 3.52 µM (inactive) with SF-295; 10.1 µM (inactive) in the experiment on T47D; 3.87 µM (inactive) in the experiment with PC-3; 33.9 µM (inactive) with OVCAR-5. The GI50 was 10.1 µM (inactive) with RPMI-8226; 23.4 µM (inactive) in the experiment with HT-29; 9.25 µM (inactive) with IGROV-1; 5.85 µM (inactive) with NCI-H460; 23.7 µM (inactive) in the experiment on HCC 2998; 14.8 µM (inactive) in the experiment with SF-268. The GI50 in the experiment with SW-620 is 24.3 µM (inactive); in the experiment with SNB-19 it was 16.2 µM (inactive); with U-251 it was 8.17 µM (inactive); in the experiment on HL-60 it was 9.33 µM (inactive); in the experiment with MCF7 it was 6.24 µM (inactive); with HCT-15, 8.32 µM. In addition, the GI50 in the experiment on MDA-MB-231 was 12.3 µM (inactive).

For `N=C(N)NCCN1CC2CCC(CC2)C1`, the GI50 is 25.6 µM (inactive) in the experiment with HOP-92; > 100 µM (inactive) with CAKI-1; > 100 µM (inactive) in the experiment with SF-295; > 100 µM (inactive) in the experiment with SR; > 100 µM (inactive) in the experiment on T47D; 44.1 µM (inactive) with PC-3. Also, the GI50 in the experiment with OVCAR-5 was > 100 µM (inactive); with RPMI-8226 it was > 100 µM (inactive); in the experiment with HT-29 it was 65.2 µM (inactive); with IGROV-1, > 100 µM (inactive); in the experiment with NCI-H460 it was > 100 µM (inactive); with HCC 2998, > 100 µM (inactive). Further, the GI50 with SF-268 was > 100 µM (inactive); with SW-620, > 100 µM (inactive); with SNB-19, > 100 µM (inactive); in the experiment with U-251, > 100 µM (inactive); with HCT-15, greater than 100 µM; with MDA-MB-231 it was > 100 µM (inactive).

On to `COCc1nc2c(OC)c(-c3nc4ccc(N5CCN(C)CC5)nc4[nH]3)cc(OC)c2n1C`, for which the GI50 in the experiment on HOP-92 is > 100 µM (inactive); in the experiment with CAKI-1, 40.7 µM (inactive); in the experiment with SF-295 it was 32.1 µM (inactive); in the experiment with T47D, 38.6 µM (inactive); in the experiment on PC-3, 21.2 µM (inactive); with OVCAR-5, 44.2 µM (inactive). The GI50 with RPMI-8226 is 18.7 µM (inactive); in the experiment on HT-29 it was 19.9 µM (inactive); in the experiment with IGROV-1, 43.8 µM (inactive); in the experiment on NCI-H460, 26.4 µM (inactive); with HCC 2998 it was 14.4 µM (inactive); in the experiment on SF-268, 45.2 µM (inactive). In addition, the GI50 with SW-620 was 28.6 µM (inactive); in the experiment on SNB-19 it was 35.4 µM (inactive); with U-251, 21.7 µM (inactive); in the experiment with HL-60, 17.4 µM (inactive); with HCT-15 it was 40.9 µM; in the experiment with MDA-MB-231, 17.7 µM (inactive).

On to `N#CC1(C#N)NC(c2cccnc2)C(C#N)(C#N)NC1c1cccnc1` (stereo not drawn), for which the GI50 in the experiment with HOP-92, in the experiment on CAKI-1, with SF-295, with T47D, in the experiment on PC-3 and in the experiment on OVCAR-5 was > 100 µM (inactive) in each case. Moreover, the GI50 in the experiment on RPMI-8226, in the experiment on HT-29, in the experiment on IGROV-1, in the experiment with HCC 2998, in the experiment on SF-268 and in the experiment with SW-620 was > 100 µM (inactive) in each case. Besides, the GI50 is > 100 µM (inactive) in the experiment with U-251; > 100 µM (inactive) in the experiment with HL-60; > 100 µM (inactive) with MCF7; greater than 100 µM with HCT-15; > 100 µM (inactive) in the experiment with MDA-MB-231.

With `CCOP(=O)(OCC)/C(C#N)=C/c1cnc(C)[nH]1`, the GI50 in the experiment with HOP-92, with CAKI-1, with SF-295, in the experiment on SR, in the experiment on PC-3 and in the experiment with OVCAR-5 was > 100 µM (inactive) each time. Further, the GI50 with RPMI-8226, with HT-29, in the experiment with IGROV-1, with NCI-H460, in the experiment on HCC 2998 and in the experiment with SF-268 was > 100 µM (inactive) in each case. Besides, the GI50 was > 100 µM (inactive) in the experiment on SW-620; > 100 µM (inactive) with SNB-19; > 100 µM (inactive) in the experiment on U-251; > 100 µM (inactive) with HL-60; > 100 µM (inactive) in the experiment with MCF7; greater than 100 µM with HCT-15. Further, the GI50 in the experiment with MDA-MB-231 is > 100 µM (inactive).

Take `CNC(=O)CCCNC(=O)CCCCC(=O)N(C)C`: the GI50 in the experiment with CAKI-1, with SF-295, in the experiment on T47D, in the experiment with PC-3, with OVCAR-5 and in the experiment with RPMI-8226 was > 100 µM (inactive) each time. Also, the GI50 with HT-29, in the experiment on NCI-H460, in the experiment on SF-268, in the experiment on SW-620, in the experiment with SNB-19 and in the experiment on U-251 was > 100 µM (inactive) in each case. Moreover, the GI50 in the experiment on MCF7 and with MDA-MB-231 was > 100 µM (inactive) in each case.

As for `O=C1N/C(=N/N=C/c2c[nH]c3ccccc23)N/C1=C\c1c[nH]c2ccccc12`, the GI50 in the experiment on HOP-92 was 16.8 µM (inactive); in the experiment on CAKI-1 it was 31 µM (inactive); in the experiment with SF-295, 21.4 µM (inactive); in the experiment on T47D it was 17.5 µM (inactive); in the experiment on PC-3, 15.7 µM (inactive); with OVCAR-5, 39.4 µM (inactive). Moreover, the GI50 with RPMI-8226 was 12.9 µM (inactive); in the experiment with HT-29, 23.1 µM (inactive); in the experiment on IGROV-1, 19.1 µM (inactive); in the experiment on NCI-H460, 36.8 µM (inactive); in the experiment with SF-268, 20.4 µM (inactive); in the experiment with SW-620, 18.2 µM (inactive). The GI50 was 69.7 µM (inactive) with SNB-19; 17.3 µM (inactive) with U-251; 18.9 µM (inactive) with HL-60; 16 µM (inactive) in the experiment on MCF7; 23 µM in the experiment with HCT-15; 20 µM (inactive) in the experiment on MDA-MB-231.

With `CN(C)CCCN1c2ccc([N+](=O)[O-])cc2CCc2cc([N+](=O)[O-])ccc21`, the GI50 in the experiment on HOP-92 was 5.26 µM (inactive); in the experiment with SF-295, 15.6 µM (inactive); in the experiment with T47D, 15.6 µM (inactive); in the experiment with PC-3, 16.4 µM (inactive); in the experiment on OVCAR-5, 13.7 µM (inactive); with RPMI-8226 it was 20.4 µM (inactive). Further, the GI50 in the experiment with HT-29 was 14.8 µM (inactive); in the experiment with IGROV-1, 14.9 µM (inactive); in the experiment on NCI-H460, 15.1 µM (inactive); in the experiment with HCC 2998, 9.84 µM (inactive); in the experiment on SF-268 it was 15.4 µM (inactive); in the experiment with SW-620, 15.3 µM (inactive). Besides, the GI50 is 17.8 µM (inactive) in the experiment on SNB-19; 16.2 µM (inactive) with U-251; 13.6 µM (inactive) with HL-60; 16.7 µM in the experiment on HCT-15; 15.9 µM (inactive) in the experiment on MDA-MB-231.
